Values quoted from earlier work as cited in patent US9226984B2, “Entrapment of radionuclides in nanoparticle compositions” (Technical University of Denmark and Rigshospitalet, priority 2010, dated 2016).

Settings: ionophore-assisted loading

Oc1cccc2cccnc12 [oxine, 8-hydroxyquinoline]
64Cu2+ retention of liposomes loaded with the ionophore: unstable liposomes
